# What was measured:
# [1] = test system: NOMO1; assay: AUC of viability dose-response curve (% viability x log10 dose units); higher = less sensitive; conditions: 48 h
# How it was run: (§1)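 Library compounds in DMSO were applied for 48 h at 37°C at 11 threefold doses (47 μM to 0.79 nM) to medium-adapted leukemia cells in 1536-well plates holding 500 or 1000 cells/well. Luminescence from CellTiter-Glo One was normalised plate by plate against DMSO and cell-free wells. Area under the curve came from trapezoidal integration of a log-logistic fit, after scaling curves that rose above full viability and discarding those that failed quality control. The fit had four parameters and used log10 doses.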
# [2] = test system: P12-Ichikawa; assay: as above; conditions: 48 h
# How it was run: as §1
# [3] = test system: SEM cells; assay: as above; conditions: 48 h
# How it was run: as §1
# [4] = test system: SEM cells; assay: cell viability relative to DMSO control; higher = less cytotoxic; conditions: 48 h
# How it was run: (§2)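 NOMO1 or SEM cells were plated at 500 cells/well and P12-Ichikawa cells at 1000 cells/well in 1536-well plates (5 μl), after each leukemia line had been adapted for at least four passages in each medium. Pin dosing delivered library compounds in DMSO at 11 threefold concentrations, 47 μM to 0.79 nM. CellTiter-Glo One luminescence was read after 48 h at 37°C. Viability is reported as a per-plate percentage of DMSO wells, with cell-free wells as background.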
# [5] = test system: NOMO1; assay: as above; conditions: HPLM + 10% dialyzed FBS, 48 h
# How it was run: as §2
# [6] = RPMI 5 mM glucose + 10% dialyzed FBS
# [7] = RPMI 5 mM glucose + 10% FBS, 0.000781 µM
# [8] = RPMI 5 mM glucose + 10% FBS, 0.00234 µM
# [9] = RPMI 5 mM glucose + 10% FBS, 0.00702 µM
# [10] = RPMI 5 mM glucose + 10% FBS, 0.0211 µM
# [11] = RPMI 5 mM glucose + 10% FBS, 0.0632 µM
# [12] = RPMI 5 mM glucose + 10% FBS, 0.19 µM
# [13] = RPMI 5 mM glucose + 10% FBS, 0.569 µM
# [14] = RPMI 5 mM glucose + 10% FBS, 1.71 µM
# [15] = RPMI 5 mM glucose + 10% FBS, 5.12 µM
# [16] = RPMI 5 mM glucose + 10% FBS, 15.4 µM
# [17] = RPMI 5 mM glucose + 10% FBS, 46.1 µM
# [18] = HPLM + 10% dialyzed FBS, 0.000781 µM
# [19] = HPLM + 10% dialyzed FBS, 0.00234 µM
# [20] = HPLM + 10% dialyzed FBS, 0.00702 µM
# [21] = HPLM + 10% dialyzed FBS, 0.0211 µM
# [22] = HPLM + 10% dialyzed FBS, 0.0632 µM
# [23] = HPLM + 10% dialyzed FBS, 0.19 µM
# [24] = HPLM + 10% dialyzed FBS, 0.569 µM
# [25] = HPLM + 10% dialyzed FBS, 1.71 µM
# [26] = HPLM + 10% dialyzed FBS, 5.12 µM
# [27] = HPLM + 10% dialyzed FBS, 15.4 µM
# [28] = HPLM + 10% dialyzed FBS, 46.1 µM
smiles,measurement,setting,value
CN(C)C(=N)NC(=N)N,AUC of viability dose-response curve,[1]; HPLM + 10% dialyzed FBS,437
same,AUC of viability dose-response curve,[1]; RPMI 5 mM glucose + 10% FBS,446
same,AUC of viability dose-response curve,[1]; [6],451
same,AUC of viability dose-response curve,[2]; HPLM + 10% dialyzed FBS,442
same,AUC of viability dose-response curve,[2]; RPMI 5 mM glucose + 10% FBS,460
same,AUC of viability dose-response curve,[2]; [6],457
same,AUC of viability dose-response curve,[3]; HPLM + 10% dialyzed FBS,436
same,AUC of viability dose-response curve,[3]; RPMI 5 mM glucose + 10% FBS,393
same,AUC of viability dose-response curve,[3]; [6],426
same,cell viability,[4]; [7],110%
same,cell viability,[4]; [8],122%
same,cell viability,[4]; [9],116%
same,cell viability,[4]; [10],132%
same,cell viability,[4]; [11],152%
same,cell viability,[4]; [12],154%
same,cell viability,[4]; [13],156%
same,cell viability,[4]; [14],110%
same,cell viability,[4]; [15],62.4%
same,cell viability,[4]; [16],56.6%
same,cell viability,[4]; [17],17.8%
C1=C/COCc2cc(ccc2OCCN2CCCC2)Nc2nccc(n2)-c2cccc(c2)OCC/1,AUC of viability dose-response curve,[2]; HPLM + 10% dialyzed FBS,409
same,AUC of viability dose-response curve,[2]; RPMI 5 mM glucose + 10% FBS,415
same,AUC of viability dose-response curve,[2]; [6],406
same,AUC of viability dose-response curve,[3]; HPLM + 10% dialyzed FBS,354
same,AUC of viability dose-response curve,[3]; RPMI 5 mM glucose + 10% FBS,369
same,AUC of viability dose-response curve,[3]; [6],350
same,cell viability,[5]; 0.000781 µM,20.8%
same,cell viability,[5]; 0.00234 µM,84.8%
same,cell viability,[5]; 0.00702 µM,123%
same,cell viability,[5]; 0.0211 µM,133%
same,cell viability,[5]; 0.0632 µM,161%
same,cell viability,[5]; 0.19 µM,130%
same,cell viability,[5]; 0.569 µM,124%
same,cell viability,[5]; 1.71 µM,94.7%
same,cell viability,[5]; 5.12 µM,63.2%
same,cell viability,[5]; 15.4 µM,7.96%
same,cell viability,[5]; 46.1 µM,5.7%
ClC1=C[NH]N=C1C\2NC(=N\C3=C2C(=O)CCC3)/NC4=NC5=CC=CC=C5O4 (stereo not drawn),AUC of viability dose-response curve,[1]; HPLM + 10% dialyzed FBS,457
same,AUC of viability dose-response curve,[1]; RPMI 5 mM glucose + 10% FBS,463
same,AUC of viability dose-response curve,[1]; [6],465
same,AUC of viability dose-response curve,[2]; HPLM + 10% dialyzed FBS,464
same,AUC of viability dose-response curve,[2]; RPMI 5 mM glucose + 10% FBS,453
same,AUC of viability dose-response curve,[2]; [6],455
same,AUC of viability dose-response curve,[3]; HPLM + 10% dialyzed FBS,460
same,AUC of viability dose-response curve,[3]; RPMI 5 mM glucose + 10% FBS,452
same,AUC of viability dose-response curve,[3]; [6],441
COC(=O)Nc1nc2cc(C(=O)c3ccccc3)ccc2[nH]1,AUC of viability dose-response curve,[1]; HPLM + 10% dialyzed FBS,401
same,AUC of viability dose-response curve,[1]; RPMI 5 mM glucose + 10% FBS,389
same,AUC of viability dose-response curve,[1]; [6],397
same,AUC of viability dose-response curve,[3]; HPLM + 10% dialyzed FBS,303
same,AUC of viability dose-response curve,[3]; RPMI 5 mM glucose + 10% FBS,286
same,AUC of viability dose-response curve,[3]; [6],291
same,cell viability,[4]; [18],115%
same,cell viability,[4]; [19],124%
same,cell viability,[4]; [20],130%
same,cell viability,[4]; [21],126%
same,cell viability,[4]; [22],100%
same,cell viability,[4]; [23],24.4%
same,cell viability,[4]; [24],69.6%
same,cell viability,[4]; [25],128%
same,cell viability,[4]; [26],26.6%
same,cell viability,[4]; [27],24.1%
same,cell viability,[4]; [28],24.1%
same,cell viability,[4]; [7],120%
same,cell viability,[4]; [8],125%
same,cell viability,[4]; [9],125%
same,cell viability,[4]; [10],122%
same,cell viability,[4]; [11],96.4%
same,cell viability,[4]; [12],18%
same,cell viability,[4]; [13],59.3%
same,cell viability,[4]; [14],86.8%
same,cell viability,[4]; [15],22.6%
same,cell viability,[4]; [16],23.4%
same,cell viability,[4]; [17],19.2%
COCCOc1ccc2c(c1)ncn2-c1ccc2cccc(N3CCC(N)CC3)c2n1,AUC of viability dose-response curve,[1]; HPLM + 10% dialyzed FBS,394
same,AUC of viability dose-response curve,[1]; RPMI 5 mM glucose + 10% FBS,418
same,AUC of viability dose-response curve,[1]; [6],405
same,AUC of viability dose-response curve,[2]; HPLM + 10% dialyzed FBS,377
same,AUC of viability dose-response curve,[2]; RPMI 5 mM glucose + 10% FBS,405
same,AUC of viability dose-response curve,[2]; [6],394
same,cell viability,[4]; [18],83.8%
same,cell viability,[4]; [19],77.9%
same,cell viability,[4]; [20],70.3%
same,cell viability,[4]; [21],59.8%
same,cell viability,[4]; [22],52.5%
same,cell viability,[4]; [23],51.6%
same,cell viability,[4]; [24],46.6%
same,cell viability,[4]; [25],42.5%
same,cell viability,[4]; [26],21.7%
same,cell viability,[4]; [27],12.8%
same,cell viability,[4]; [28],4.13%
same,cell viability,[4]; [7],99.7%
same,cell viability,[4]; [8],115%
same,cell viability,[4]; [9],109%
same,cell viability,[4]; [10],67.6%
same,cell viability,[4]; [11],58.7%
same,cell viability,[4]; [12],47.8%
same,cell viability,[4]; [13],50.9%
same,cell viability,[4]; [14],44.1%
same,cell viability,[4]; [15],25.8%
same,cell viability,[4]; [16],12.3%
same,cell viability,[4]; [17],3.44%
same,cell viability,"[4]; RPMI 5 mM glucose + 10% dialyzed FBS, 0.000781 µM",112%
same,cell viability,"[4]; RPMI 5 mM glucose + 10% dialyzed FBS, 0.00234 µM",101%
same,cell viability,"[4]; RPMI 5 mM glucose + 10% dialyzed FBS, 0.00702 µM",72.2%
same,cell viability,"[4]; RPMI 5 mM glucose + 10% dialyzed FBS, 0.0211 µM",65.2%
same,cell viability,"[4]; RPMI 5 mM glucose + 10% dialyzed FBS, 0.0632 µM",51.3%
same,cell viability,"[4]; RPMI 5 mM glucose + 10% dialyzed FBS, 0.19 µM",46.1%
same,cell viability,"[4]; RPMI 5 mM glucose + 10% dialyzed FBS, 0.569 µM",44.6%
same,cell viability,"[4]; RPMI 5 mM glucose + 10% dialyzed FBS, 1.71 µM",41.8%
same,cell viability,"[4]; RPMI 5 mM glucose + 10% dialyzed FBS, 5.12 µM",23.7%
same,cell viability,"[4]; RPMI 5 mM glucose + 10% dialyzed FBS, 15.4 µM",13.1%
same,cell viability,"[4]; RPMI 5 mM glucose + 10% dialyzed FBS, 46.1 µM",3.97%

# From the supplement of paper PMC11451515
